Legend:
Format in all cases: cell-based
[1] = system: mixed Klebsiella pneumoniae (ATCC 4352) and Enterobacter gergoviae (ATCC 33028); test: CTFA-type challenge test, mixed K. pneumoniae + E. gergoviae inoculum; conditions: Make-up Remover at pH 8.1 with 0.83% Benzyl Alcohol
Excerpt: (§1) CTFA Challenge Test Procedure: A challenge protocol similar to the CTFA method was followed to assess efficacy against a broad spectrum of microorganisms. The five separate inocula were: Staphylococcus aureus (ATCC 6538), mixed Pseudomonas aeruginosa (ATCC 9027) and Burkholderia cepacia (ATCC 25416), mixed Klebsiella pneumoniae (ATCC 4352) and Enterobacter gergoviae (ATCC 33028), Candida albicans (ATCC 10231), and a mixture of molds: Aspergillus niger (ATCC 16404) and 2 Penicillium sp. isolated from cosmetic products. Samples (35 grams each) were inoculated with approximately 2,000,000 bacteria per gram or 100,000 yeast cells or mold spores per gram. Individual challenges were prepared from overnight slants of bacteria and yeast cultures and from heavily sporulating mold cultures, 7 to 10 days old. All samples were plated quantitatively for viable organisms after 24 hours and weekly for up to 4 weeks. Samples inoculated with mold spores were also plated after 48 hours. Samples were re-challenged after four weeks (or sooner where appropriate) and the same sampling regime followed.
(§2) Recommended “Pass” Criteria: CTFA recommends at least a 99.9% reduction of vegetative bacteria and at least a 90% reduction of yeasts and molds within 7 days following each challenge with no increase in count thereafter.
(§3) The preservative concentrates were added to these formulations to give a final concentration of 1%. […]

[2] = system: mixed Pseudomonas aeruginosa (ATCC 9027) and Burkholderia cepacia (ATCC 25416); test: CTFA-type challenge test, mixed P. aeruginosa + B. cepacia inoculum; conditions: Make-up Remover at pH 8.1 with 0.83% Benzyl Alcohol
Excerpt: as §1, §2, §3

[3] = system: mixture of molds: Aspergillus niger (ATCC 16404) and 2 Penicillium sp.; test: CTFA-type challenge test, mixed mold inoculum; conditions: for Colony Forming Units per Gram (CFU/g), Mixed Molds: Make-up Remover at pH 8.1 with 0.83% Benzyl Alcohol
Excerpt: as §1, §2, §3
To determine if the unexpected activity of ECT 4 at high pH (8.1) can be attributed solely to the activity of benzyl alcohol the high pH make-up remover was preserved with 1% ECT4 and with 0.83% benzyl alcohol (equivalent amount found in 1% ECT4).

[4] = system: Staphylococcus aureus (ATCC 6538); test: CTFA-type challenge test, S. aureus inoculum; conditions: Make-up Remover at pH 8.1 with 0.83% Benzyl Alcohol
[5] = system: mixed Klebsiella pneumoniae (ATCC 4352) and Enterobacter gergoviae (ATCC 33028); test: CTFA-type challenge test, mixed K. pneumoniae + E. gergoviae inoculum; conditions: Make-up Remover at pH 8.1 with 0.83% Benzyl Alcohol; Challenge #2; 48 Hours
[6] = system: mixed Pseudomonas aeruginosa (ATCC 9027) and Burkholderia cepacia (ATCC 25416); test: CTFA-type challenge test, mixed P. aeruginosa + B. cepacia inoculum; conditions: Make-up Remover at pH 8.1 with 0.83% Benzyl Alcohol; Challenge #2; 48 Hours
[7] = system: Candida albicans (ATCC 10231); test: CTFA-type challenge test, C. albicans inoculum; conditions: Make-up Remover at pH 8.1 with 0.83% Benzyl Alcohol
[8] = High pH Make-up Remover (pH 8.1), 0.83% benzyl alcohol

OCc1ccccc1 [benzyl alcohol]
not sufficiently efficacious: Efficacy against the mixed mold challenge [3, 8]
<10 CFU/g: Colony Forming Units per Gram (CFU/g), K. pneumoniae + E. gergoviae ([1]; Challenge #1, 7 Days) | Colony Forming Units per Gram (CFU/g), K. pneumoniae + E. gergoviae ([1]; Challenge #1, 14 Days) | Colony Forming Units per Gram (CFU/g), K. pneumoniae + E. gergoviae ([1]; Challenge #1, 21 Days) | Colony Forming Units per Gram (CFU/g), K. pneumoniae + E. gergoviae ([1]; Challenge #1, 24 Hours) | Colony Forming Units per Gram (CFU/g), K. pneumoniae + E. gergoviae ([1]; Challenge #1, 28 Days) | Colony Forming Units per Gram (CFU/g), K. pneumoniae + E. gergoviae ([1]; Challenge #2, 7 Days) | Colony Forming Units per Gram (CFU/g), K. pneumoniae + E. gergoviae ([1]; Challenge #2, 14 Days) | Colony Forming Units per Gram (CFU/g), K. pneumoniae + E. gergoviae ([1]; Challenge #2, 21 Days) | Colony Forming Units per Gram (CFU/g), K. pneumoniae + E. gergoviae ([1]; Challenge #2, 28 Days) | Colony Forming Units per Gram (CFU/g), P. aeruginosa + B. cepacia ([2]; Challenge #1, 7 Days) | Colony Forming Units per Gram (CFU/g), P. aeruginosa + B. cepacia ([2]; Challenge #1, 14 Days) | Colony Forming Units per Gram (CFU/g), P. aeruginosa + B. cepacia ([2]; Challenge #1, 21 Days) | Colony Forming Units per Gram (CFU/g), P. aeruginosa + B. cepacia ([2]; Challenge #1, 24 Hours) | Colony Forming Units per Gram (CFU/g), P. aeruginosa + B. cepacia ([2]; Challenge #1, 28 Days) | Colony Forming Units per Gram (CFU/g), P. aeruginosa + B. cepacia ([2]; Challenge #2, 7 Days) | Colony Forming Units per Gram (CFU/g), P. aeruginosa + B. cepacia ([2]; Challenge #2, 14 Days) | Colony Forming Units per Gram (CFU/g), P. aeruginosa + B. cepacia ([2]; Challenge #2, 21 Days) | Colony Forming Units per Gram (CFU/g), P. aeruginosa + B. cepacia ([2]; Challenge #2, 28 Days) | Colony Forming Units per Gram (CFU/g), S. aureus ([4]; Challenge #1, 7 Days) | Colony Forming Units per Gram (CFU/g), S. aureus ([4]; Challenge #1, 14 Days) | Colony Forming Units per Gram (CFU/g), S. aureus ([4]; Challenge #1, 21 Days) | Colony Forming Units per Gram (CFU/g), S. aureus ([4]; Challenge #1, 24 Hours) | Colony Forming Units per Gram (CFU/g), S. aureus ([4]; Challenge #1, 28 Days) | Colony Forming Units per Gram (CFU/g), S. aureus ([4]; Challenge #2, 7 Days) | Colony Forming Units per Gram (CFU/g), S. aureus ([4]; Challenge #2, 14 Days) | Colony Forming Units per Gram (CFU/g), S. aureus ([4]; Challenge #2, 21 Days) | Colony Forming Units per Gram (CFU/g), S. aureus ([4]; Challenge #2, 28 Days) | Colony Forming Units per Gram (CFU/g), S. aureus ([4]; Challenge #2, 48 Hours) | Colony Forming Units per Gram (CFU/g), K. pneumoniae + E. gergoviae [5] | Colony Forming Units per Gram (CFU/g), P. aeruginosa + B. cepacia [6] | Colony Forming Units per Gram (CFU/g), C. albicans ([7]; Challenge #1, 14 Days) | Colony Forming Units per Gram (CFU/g), C. albicans ([7]; Challenge #1, 21 Days) | Colony Forming Units per Gram (CFU/g), C. albicans ([7]; Challenge #1, 28 Days) | Colony Forming Units per Gram (CFU/g), C. albicans ([7]; Challenge #2, 7 Days) | Colony Forming Units per Gram (CFU/g), C. albicans ([7]; Challenge #2, 14 Days) | Colony Forming Units per Gram (CFU/g), C. albicans ([7]; Challenge #2, 21 Days) | Colony Forming Units per Gram (CFU/g), C. albicans ([7]; Challenge #2, 28 Days)
2.1 × 10^5 CFU/g: Colony Forming Units per Gram (CFU/g), Mixed Molds ([3]; Challenge #1, 24 Hours)
5.1 × 10^3 CFU/g: Colony Forming Units per Gram (CFU/g), Mixed Molds ([3]; Challenge #1, 28 Days)
1.6 × 10^2 CFU/g: Colony Forming Units per Gram (CFU/g), C. albicans ([7]; Challenge #1, 7 Days)
3.6 × 10^3 CFU/g: Colony Forming Units per Gram (CFU/g), Mixed Molds ([3]; Challenge #2, 14 Days)
<1.0 × 10^2 CFU/g: Colony Forming Units per Gram (CFU/g), C. albicans ([7]; Challenge #2, 48 Hours)
9.0 × 10^3 CFU/g: Colony Forming Units per Gram (CFU/g), Mixed Molds ([3]; Challenge #2, 21 Days)
8.0 × 10^4 CFU/g: Colony Forming Units per Gram (CFU/g), Mixed Molds ([3]; Challenge #1, 14 Days)
1.5 × 10^4 CFU/g: Colony Forming Units per Gram (CFU/g), Mixed Molds ([3]; Challenge #1, 21 Days)
3.0 × 10^4 CFU/g: Colony Forming Units per Gram (CFU/g), Mixed Molds ([3]; Challenge #1, 7 Days)
1.2 × 10^5 CFU/g: Colony Forming Units per Gram (CFU/g), Mixed Molds ([3]; Challenge #1, 48 Hours)
3.1 × 10^4 CFU/g: Colony Forming Units per Gram (CFU/g), C. albicans ([7]; Challenge #1, 24 Hours)
3.4 × 10^3 CFU/g: Colony Forming Units per Gram (CFU/g), Mixed Molds ([3]; Challenge #2, 7 Days)
did not meet CTFA recommendations: CTFA recommendations for a minimum of 90% mold reduction in 7 days [3, 8]
3.8 × 10^3 CFU/g: Colony Forming Units per Gram (CFU/g), Mixed Molds ([3]; Challenge #2, 48 Hours)
4.0 × 10^2 CFU/g: Colony Forming Units per Gram (CFU/g), Mixed Molds ([3]; Challenge #2, 28 Days)
